Measured values as given in ChEMBL document CHEMBL4020829, “Structure-Activity Relationships and Computational Investigations into the Development of Potent and Balanced Dual-Acting Butyrylcholinesterase Inhibitors and Human Cannabinoid Receptor 2 Ligands with Pro-Cognitive in Vivo Profiles” (J Med Chem, 2018).
The source made the active and inactive calls. The calls are words filed in the database; no cut-off is given here.

Key:
[1] = target: T1, Cannabinoid receptor 1 (Homo sapiens, UniProt P21554); experiment: Displacement of [3H]-[…] from human CB1 receptor expressed in CHO cell membranes at 10 uM after 3 hrs by scintillation counting method relative to control
[2] = target: T2, Cholinesterase (Homo sapiens, UniProt P06276)
[3] = target: T3, Acetylcholinesterase (Homo sapiens, UniProt P22303)
[4] = target: Acetylcholinesterase (Electrophorus electricus, UniProt O42275); experiment: Inhibition of electric eel AChE using ATC iodide as substrate preincubated for 4.5 mins followed by substrate addition measured after 2.5 mins by Ellman's method
[5] = target: T4, Cannabinoid receptor 2 (Homo sapiens, UniProt P34972); experiment: biochemical
Description: Displacement of [3H]-CP55950 from human CB2 receptor expressed in HEK cell membranes after 3 hrs by scintillation counting method

[6] = test system: U-266; experiment: Cytotoxicity against human U266 cells assessed as decrease in cell viability after 72 hrs by MTT assay; assay type: cell-based; conditions: U-266, 72 h
[7] = target: T3, Acetylcholinesterase; experiment: Inhibition of human erythrocyte AChE at 10 uM using ATC iodide as substrate preincubated for 4.5 mins followed by substrate addition measured after 2.5 mins by Ellman's method relative to control
[8] = target: Acetylcholinesterase (Electrophorus electricus) (UniProt O42275); experiment: Inhibition of electric eel AChE at 10 uM using ATC iodide as substrate preincubated for 4.5 mins followed by substrate addition measured after 2.5 mins by Ellman's method relative to control
[9] = target: T2, Cholinesterase; experiment: Inhibition of human BChE at 100 uM using BTC iodide as substrate preincubated for 4.5 mins followed by substrate addition measured after 2.5 mins by Ellman's method relative to control
[10] = target: Acetylcholinesterase (Electrophorus electricus) (UniProt O42275); experiment: Inhibition of electric eel AChE at 100 uM using ATC iodide as substrate preincubated for 4.5 mins followed by substrate addition measured after 2.5 mins by Ellman's method relative to control
[11] = target: T4, Cannabinoid receptor 2; experiment: Agonist activity at CB2 receptor in human U266 cells assessed as decrease in MIF mRNA expression at 50 uM after 2 hrs by qRT-PCR method; assay type: cell-based
[12] = test system: Mus musculus; experiment: Pro-cognitive activity in amyloid beta (25 to 35)-treated Swiss mouse assessed as increase in locomotion by measuring number of arms entered during session at 3 mg/kg, ip administered for 7 days measured on day 8 by Y-maze test; assay type: functional, organism-based
[13] = test system: Mus musculus; experiment: Pro-cognitive activity in Swiss mouse assessed as prevention of amyloid beta (25 to 35)-induced increase in escape latency at 1 to 3 mg/kg, ip administered for 7 days measured on day 10 by passive avoidance test; assay type: functional, organism-based
[14] = target: T4, Cannabinoid receptor 2; experiment: Agonist activity at CB2 receptor in human U266 cells assessed as decrease in AM630-induced cAMP accumulation at 50 uM after 2 hrs by ELISA; assay type: functional, cell-based
[15] = target: T4, Cannabinoid receptor 2; experiment: Agonist activity at CB2 receptor in human U266 cells assessed as decrease in STAT3 mRNA expression at 50 uM after 2 hrs by qRT-PCR method; assay type: cell-based
[16] = target: T4, Cannabinoid receptor 2; experiment: Agonist activity at CB2 receptor in human U266 cells assessed as decrease in cAMP accumulation at 50 uM after 2 hrs by ELISA; assay type: functional, cell-based
[17] = target: T4, Cannabinoid receptor 2; experiment: Agonist activity at CB2 receptor in human U266 cells assessed as decrease in AM630-induced MIF mRNA expression at 50 uM after 2 hrs by qRT-PCR method; assay type: cell-based
[18] = test system: Mus musculus; experiment: Toxicity in Swiss mouse assessed as body weight gain per day at 0.3 to 3 mg/kg, ip administered for 7 days measured during compound dosing; assay type: organism-based; conditions: in vivo, 168 h
[19] = target: Cholinesterase (Equus caballus, UniProt P81908); experiment: Inhibition of equine BChE using BTC iodide as substrate preincubated for 4.5 mins followed by substrate addition measured after 2.5 mins by Ellman's method
[20] = target: T2, Cholinesterase; experiment: Inhibition of human BChE at 10 uM using BTC iodide as substrate preincubated for 4.5 mins followed by substrate addition measured after 2.5 mins by Ellman's method relative to control
[21] = target: T4, Cannabinoid receptor 2; experiment: Agonist activity at CB2 receptor in human U266 cells assessed as decrease in AM630-induced STAT3 mRNA expression at 50 uM after 2 hrs by qRT-PCR method; assay type: cell-based
[22] = target: T3, Acetylcholinesterase; experiment: Inhibition of human erythrocyte AChE at 100 uM using ATC iodide as substrate preincubated for 4.5 mins followed by substrate addition measured after 2.5 mins by Ellman's method relative to control
[23] = test system: Mus musculus; experiment: Pro-cognitive activity in Swiss mouse assessed as prevention of amyloid beta (25 to 35)-induced step through latency deficit at 3 mg/kg, ip administered for 7 days measured on day 10 by passive avoidance test; assay type: functional, organism-based
[24] = target: T2, Cholinesterase; experiment: Inhibition of human BChE at 25 uM using BTC iodide as substrate preincubated for 4.5 mins followed by substrate addition measured after 2.5 mins by Ellman's method relative to control
[25] = target: Acetylcholinesterase (Electrophorus electricus) (UniProt O42275); experiment: Inhibition of electric eel AChE at 25 uM using ATC iodide as substrate preincubated for 4.5 mins followed by substrate addition measured after 2.5 mins by Ellman's method relative to control
[26] = target: T4, Cannabinoid receptor 2; conditions: 10 uM
Description: Displacement of [3H]-CP55950 from human CB2 receptor expressed in HEK cell membranes at 10 uM after 3 hrs by scintillation counting method relative to control

[27] = target: T1, Cannabinoid receptor 1; experiment: biochemical; assay type: cell-based
Description: Displacement of [3H]-CP55950 from human CB1 receptor expressed in CHO cell membranes after 3 hrs by scintillation counting method

[28] = target: T2, Cholinesterase; experiment: Inhibition of human BChE at 50 uM using BTC iodide as substrate preincubated for 4.5 mins followed by substrate addition measured after 2.5 mins by Ellman's method relative to control
[29] = target: Acetylcholinesterase (Electrophorus electricus) (UniProt O42275); experiment: Inhibition of electric eel AChE at 50 uM using ATC iodide as substrate preincubated for 4.5 mins followed by substrate addition measured after 2.5 mins by Ellman's method relative to control

T3 sequence (P22303 whole entry): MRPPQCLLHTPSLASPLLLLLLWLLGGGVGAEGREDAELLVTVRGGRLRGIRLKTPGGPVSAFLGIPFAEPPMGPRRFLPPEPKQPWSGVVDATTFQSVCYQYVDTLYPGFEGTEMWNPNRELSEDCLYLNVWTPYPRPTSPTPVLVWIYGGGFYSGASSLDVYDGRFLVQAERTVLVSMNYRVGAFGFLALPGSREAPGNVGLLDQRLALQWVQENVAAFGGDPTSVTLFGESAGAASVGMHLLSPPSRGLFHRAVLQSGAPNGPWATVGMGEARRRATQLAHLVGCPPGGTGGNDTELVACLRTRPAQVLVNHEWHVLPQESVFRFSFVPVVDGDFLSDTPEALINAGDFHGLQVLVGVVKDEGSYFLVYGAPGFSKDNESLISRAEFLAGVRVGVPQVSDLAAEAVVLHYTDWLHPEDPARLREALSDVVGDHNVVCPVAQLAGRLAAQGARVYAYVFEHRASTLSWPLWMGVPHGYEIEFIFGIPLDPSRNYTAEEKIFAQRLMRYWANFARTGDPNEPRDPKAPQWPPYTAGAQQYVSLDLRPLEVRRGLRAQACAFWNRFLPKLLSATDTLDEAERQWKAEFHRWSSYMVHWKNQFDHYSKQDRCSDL
Chain of Acetylcholinesterase (Electrophorus electricus) (O42275 24-633 limits assumed): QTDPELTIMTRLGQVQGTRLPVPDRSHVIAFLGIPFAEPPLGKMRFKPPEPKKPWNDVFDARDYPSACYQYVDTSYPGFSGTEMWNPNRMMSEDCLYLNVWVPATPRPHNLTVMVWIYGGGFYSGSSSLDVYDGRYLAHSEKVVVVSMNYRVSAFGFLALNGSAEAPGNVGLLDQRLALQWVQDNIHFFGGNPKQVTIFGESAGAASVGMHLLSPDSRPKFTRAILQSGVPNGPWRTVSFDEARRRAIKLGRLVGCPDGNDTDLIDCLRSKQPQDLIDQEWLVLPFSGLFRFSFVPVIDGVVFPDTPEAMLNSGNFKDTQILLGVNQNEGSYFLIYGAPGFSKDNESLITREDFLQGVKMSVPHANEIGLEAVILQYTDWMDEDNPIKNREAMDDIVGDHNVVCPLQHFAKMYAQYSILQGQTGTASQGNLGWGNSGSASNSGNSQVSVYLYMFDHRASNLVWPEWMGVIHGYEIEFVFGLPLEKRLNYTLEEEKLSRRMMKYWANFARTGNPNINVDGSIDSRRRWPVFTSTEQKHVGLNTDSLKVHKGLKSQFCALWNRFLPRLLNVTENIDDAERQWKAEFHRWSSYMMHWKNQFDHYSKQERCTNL
T4 sequence (P34972 whole entry): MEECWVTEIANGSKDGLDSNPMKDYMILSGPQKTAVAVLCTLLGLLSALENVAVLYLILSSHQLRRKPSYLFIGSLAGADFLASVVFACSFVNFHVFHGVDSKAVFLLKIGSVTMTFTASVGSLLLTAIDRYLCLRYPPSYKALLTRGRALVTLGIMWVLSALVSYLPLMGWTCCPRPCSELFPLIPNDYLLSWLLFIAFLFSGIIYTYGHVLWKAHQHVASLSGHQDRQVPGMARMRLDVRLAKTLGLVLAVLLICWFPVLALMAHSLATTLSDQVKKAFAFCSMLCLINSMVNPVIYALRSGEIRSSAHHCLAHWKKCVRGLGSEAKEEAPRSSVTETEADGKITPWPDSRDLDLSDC
T1 sequence (P21554 whole entry): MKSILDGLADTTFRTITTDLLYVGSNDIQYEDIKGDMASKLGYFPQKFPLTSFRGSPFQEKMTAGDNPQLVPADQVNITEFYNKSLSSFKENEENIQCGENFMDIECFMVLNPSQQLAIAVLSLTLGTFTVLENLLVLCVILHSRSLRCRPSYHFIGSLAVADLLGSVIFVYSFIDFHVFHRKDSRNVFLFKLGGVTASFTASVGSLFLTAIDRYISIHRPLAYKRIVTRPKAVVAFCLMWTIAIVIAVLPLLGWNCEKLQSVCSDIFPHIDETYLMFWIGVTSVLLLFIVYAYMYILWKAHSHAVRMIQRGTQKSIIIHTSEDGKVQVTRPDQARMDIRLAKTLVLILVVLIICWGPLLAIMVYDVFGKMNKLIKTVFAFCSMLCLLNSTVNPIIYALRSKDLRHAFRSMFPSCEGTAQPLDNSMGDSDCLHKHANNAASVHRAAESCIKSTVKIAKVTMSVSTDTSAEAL
Chain of Cholinesterase (Equus caballus, UniProt P81908) (P81908 whole entry): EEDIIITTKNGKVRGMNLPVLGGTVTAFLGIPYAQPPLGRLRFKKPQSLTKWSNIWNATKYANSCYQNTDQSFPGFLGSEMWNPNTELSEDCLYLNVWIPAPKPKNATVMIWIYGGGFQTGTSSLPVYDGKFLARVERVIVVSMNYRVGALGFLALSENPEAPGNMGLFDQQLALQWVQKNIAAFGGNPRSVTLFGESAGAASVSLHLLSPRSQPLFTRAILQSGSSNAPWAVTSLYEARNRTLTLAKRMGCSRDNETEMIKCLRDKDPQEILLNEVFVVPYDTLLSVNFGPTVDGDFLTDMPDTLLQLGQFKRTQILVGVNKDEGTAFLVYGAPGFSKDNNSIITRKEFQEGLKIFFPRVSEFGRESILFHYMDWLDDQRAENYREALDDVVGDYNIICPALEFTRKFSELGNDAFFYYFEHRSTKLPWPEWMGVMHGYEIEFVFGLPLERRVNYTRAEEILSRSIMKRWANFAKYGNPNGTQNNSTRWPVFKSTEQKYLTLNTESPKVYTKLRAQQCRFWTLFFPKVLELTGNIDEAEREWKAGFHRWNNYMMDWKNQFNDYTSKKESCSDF
T2 sequence (P06276 whole entry): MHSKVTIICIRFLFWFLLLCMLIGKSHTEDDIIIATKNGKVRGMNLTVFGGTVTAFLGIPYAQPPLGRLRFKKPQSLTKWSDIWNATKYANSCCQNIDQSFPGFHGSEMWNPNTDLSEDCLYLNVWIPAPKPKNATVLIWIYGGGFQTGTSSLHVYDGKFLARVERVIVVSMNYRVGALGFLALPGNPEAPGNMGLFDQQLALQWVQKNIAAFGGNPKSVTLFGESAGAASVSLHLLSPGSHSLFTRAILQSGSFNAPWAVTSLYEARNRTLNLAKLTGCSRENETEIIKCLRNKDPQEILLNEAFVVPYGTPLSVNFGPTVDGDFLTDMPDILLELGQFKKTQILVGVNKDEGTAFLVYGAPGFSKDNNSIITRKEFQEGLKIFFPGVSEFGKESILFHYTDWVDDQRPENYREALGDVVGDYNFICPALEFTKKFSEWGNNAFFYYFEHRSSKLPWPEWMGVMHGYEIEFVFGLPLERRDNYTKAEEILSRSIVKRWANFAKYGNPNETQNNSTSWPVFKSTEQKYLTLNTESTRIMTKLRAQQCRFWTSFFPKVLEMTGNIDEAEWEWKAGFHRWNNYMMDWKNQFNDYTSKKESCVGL
Chain of Acetylcholinesterase (Electrophorus electricus, UniProt O42275) (O42275 whole entry): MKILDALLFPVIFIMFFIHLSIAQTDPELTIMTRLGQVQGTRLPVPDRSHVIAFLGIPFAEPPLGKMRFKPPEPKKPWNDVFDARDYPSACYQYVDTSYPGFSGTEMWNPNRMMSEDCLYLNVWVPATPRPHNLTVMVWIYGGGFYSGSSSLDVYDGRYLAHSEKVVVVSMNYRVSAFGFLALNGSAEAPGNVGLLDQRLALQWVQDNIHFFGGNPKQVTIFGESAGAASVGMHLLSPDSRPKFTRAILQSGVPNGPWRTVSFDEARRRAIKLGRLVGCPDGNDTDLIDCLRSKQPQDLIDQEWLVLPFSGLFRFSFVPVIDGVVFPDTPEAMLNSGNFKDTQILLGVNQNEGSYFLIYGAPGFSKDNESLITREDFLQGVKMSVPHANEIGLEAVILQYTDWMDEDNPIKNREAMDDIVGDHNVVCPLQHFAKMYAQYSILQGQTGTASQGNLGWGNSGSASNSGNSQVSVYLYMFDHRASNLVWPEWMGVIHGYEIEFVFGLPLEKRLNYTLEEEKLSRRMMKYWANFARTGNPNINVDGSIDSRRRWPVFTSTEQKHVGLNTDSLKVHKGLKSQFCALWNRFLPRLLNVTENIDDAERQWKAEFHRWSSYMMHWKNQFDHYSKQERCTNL

Row | SMILES | inhibition [1] | IC50 [2] | IC50 [5] | Ki [5] | IC50 [6] | inhibition [7] | inhibition [8] | inhibition [10] | inhibition [20] | further results
1 | CCOc1ccc(Cc2nc3cc(C(=O)N(CC)CC)ccc3n2CCCCCCN2CCCCC2)cc1 | 4% | 8.2 µM | 1.26 µM | 1 µM | – | – | – | – | – | IC50 [3]: 20 µM; IC50 [4]: 11.9 µM
2 | CCOc1ccc(Cc2nc3cc(C(=O)N(CC)CC)ccc3n2CCCCN2CCCCC2)cc1 | 2% | 2.7 µM | 5.01 µM | 4.8 µM | > 40 µM | – | – | – | – | IC50 [3]: 60.1 µM; IC50 [4]: 20.5 µM
3 | CCOc1ccc(Cc2nc3cc(C(=O)Nc4ccccc4)ccc3n2CCC(C)C)cc1 | 18% | 1.2 µM | 15.8 µM | 14.4 µM | > 40 µM | 5% | 2% | – | – | –
4 | CCOc1ccc(Cc2nc3cc(N)ccc3n2CCC(C)C)cc1 | 27% | – | 20 µM | 21 µM | – | – | – | 15% | – | inhibition [9]: 39%
5 | CCOc1ccc(Cc2nc3cc(C(=O)N(CC)CC)ccc3n2CCC(C)C)cc1 | 24% | – | – | – | – | – | – | 28% | 2% | Activity [11]: Active; Activity [12]: Active; Activity [13]: Active; Activity [14]: Active; Activity [15]: Active; Activity [16]: Active; Activity [17]: Active; Activity [18]: 0.3 g; IC50 [19]: 9.7 µM; Activity [21]: Active; inhibition [22]: 6%
6 | CCOc1ccc(Cc2nc3cc(C(=O)NC45CC6CC(CC(C6)C4)C5)ccc3n2CCC(C)C)cc1 | 31% | – | 5.01 µM | 4.7 µM | > 40 µM | – | 5% | – | 1% | –
7 | CCOc1ccc(Nc2nc3cc(C(=O)N(CC)CC)ccc3n2CCC(C)C)cc1 | 13% | – | 2 µM | 1.9 µM | > 40 µM | 13% | – | 4% | 3% | Activity [23]: Active; Activity [11]: Active; Activity [12]: Active; Activity [13]: Active; Activity [14]: Active; Activity [15]: Active; Activity [16]: Active; Activity [17]: Active; Activity [18]: 0.3 g; IC50 [19]: 0.7 µM; Activity [21]: Active
8 | CCN(CC)C(=O)c1ccc2c(c1)nc(Nc1ccc(Oc3ccccc3)cc1)n2CCC(C)C | 45% | – | 0.501 µM | 0.426 µM | > 40 µM | 3% | – | 2% | 0% | Activity [11]: Active; Activity [14]: Active; Activity [15]: Active; Activity [16]: Active; Activity [17]: Active; IC50 [19]: 3.7 µM; Activity [21]: Active
9 | CCN(CC)C(=O)c1ccc2c(c1)nc(Nc1ccc(Oc3ccccc3)cc1)n2CCN1CCCCC1 | 37% | – | 7.94 µM | 8.9 µM | – | – | – | – | – | inhibition [24]: 4%; inhibition [25]: 3%
10 | Cc1c(C(=O)NN2CCCCC2)nn(-c2ccc(Cl)cc2Cl)c1-c1ccc(Cl)cc1 | – | – | – | – | – | – | – | – | – | inhibition [26]: 4%
11 | CCOc1ccc(Nc2nc3cc(C(=O)N(CC)CC)ccc3n2CCN2CCCCC2)cc1 | 17% | 53.4 µM | 12.6 µM | 10.4 µM | – | 3% | – | 18% | – | –
12 | CCOc1ccc(Cc2nc3cc(C(=O)N4CCCCC4)ccc3n2CCC(C)C)cc1 | – | 5.7 µM | 0.398 µM | 0.384 µM | – | 2% | 8% | – | – | IC50 [27]: 15.8 µM; Ki [27]: 17 µM
13 | CCCCCCNC(=O)c1ccc2c(c1)nc(Cc1ccc(OCC)cc1)n2CCC(C)C | 39% | 5.2 µM | 2 µM | 1.9 µM | > 40 µM | 6% | 8% | – | – | –
14 | CCOc1ccc(Cc2nc3cc(NC(=O)c4ccccc4)ccc3n2CCC(C)C)cc1 | 36% | – | 3.98 µM | 4.3 µM | – | – | 2% | – | 25% | –
15 | CCOc1ccc(CNc2nc3cc(C(=O)N(CC)CC)ccc3n2CCC(C)C)cc1 | 21% | – | 0.398 µM | 0.353 µM | – | – | – | – | – | inhibition [28]: 4%; inhibition [29]: 7%
